# From PMC6751662, “Pharmacological and functional similarities of the human neuropeptide Y system in C. elegans challenges phylogenetic views on the FLP/NPR system” (Cell Communication and Signaling : CCS, 2019)
# How the values were obtained:
# NPR-6 = assay: cAMP reporter gene assay, Gi/o (inhibition of forskolin-induced cAMP), NPR-6; format: cell-based, C. elegans; conditions: 1 µM forskolin set to 1.00, transiently transfected HEK293 cells, mean of at least three independent experiments
# Method: (§1) Activation of Gs and Gi/o was assessed with a cAMP reporter gene assay. HEK293 cells grown to 70–80% confluency in 6-well plates were transiently co-transfected with vectors encoding the receptor and the cAMP reporter gene plasmid pGL4.29 [luc2P/CRE/Hygro] (Promega; 4 μg total, 1:1 ratio) using Metafectene Pro (3 μl/μg DNA; Biontex) following the manufacturer’s instructions. 16 h post transfection, the cells were seeded into white 384-well plates at a density of 20,000 cells/well. On the next day, the medium was removed and the cells were stimulated with 20 μl of peptide solution (or forskolin as positive control) in serum-free DMEM for 4 h. For measuring Gi/o activity, the peptide solutions additionally contained 1 μM forskolin to elevate cellular cAMP levels. After incubation, the luciferase substrate OneGlo in lysis buffer (Promega) was added and the luminescence was measured in a microplate reader Tecan Spark (Tecan). Data were analyzed with GraphPad Prism 5.03 and are shown as fold of basal or fold of forskolin in case of Gαi/o activity.
# (§2) For in vitro activation, data is presented as mean ± SEM of at least three independent experiments conducted in technical triplicate. […] For the C. elegans NPRs, we considered the strongest response elicited by any of the peptides downstream of a particular receptor as the receptor’s maximal signal. This may or may not be the biological maximum that can be reached by the ‘true’ endogenous agonist. For the human receptors, the response to the established endogenous agonist reflected the maximal signal.
# Y4R = biological target: T1, Y4R (Homo sapiens, UniProt P50391); assay: IP accumulation assay, chimeric GαΔ6qi4myr, Y4R; format: cell-based; conditions: chimeric GαΔ6qi4myr co-transfected, transiently transfected HEK293 cells, mean of at least three independent experiments
# T1 construct: expressed in transfected cells; host or cells: HEK293, transient
# Method: (§3) For measuring IP accumulation, HEK293 cells grown to 70–80% confluency in 6-well plates were transiently co-transfected using Metafectene Pro (2.5 μl/μg DNA; Biontex) with plasmids containing receptor and/or mock (empty pcDNA3.1) (for endogenous Gq-coupling) using 4 μg total DNA in a ratio of 3:1 following the manufacturer’s instructions. For testing Gα16- and GαΔ6qi4myr-coupling, plasmids encoding the corresponding Gα protein were co-transfected instead of mock. Gα16 is naturally promiscuous and stimulates the phospholipase C (PLC) pathway leading to IP production, while the exchange of the C-terminal four amino acids of Gαq for the corresponding residues of Gαi1 in the chimeric GαΔ6qi4myr confers the ability to couple to Gi/o protein-preferring receptors but still stimulate PLC, thus specifically redirecting downstream cellular signaling. 16 h post transfection, the cells were seeded into white 384-well plates at a density of 20,000 cells/well. Media was removed 24 h later and the cells were incubated with the indicated concentration of peptides for 1 h in HBSS + 20 mM LiCl. IP accumulation was measured with the HTRF-based IP-One Gq kit (Cisbio) on a microplate reader (Tecan Spark).
# as §2
# Y5R = biological target: T2, Y5R (Homo sapiens, UniProt Q15761); assay: IP accumulation assay, chimeric GαΔ6qi4myr, Y5R; format: cell-based; conditions: chimeric GαΔ6qi4myr co-transfected, transiently transfected HEK293 cells, mean of at least three independent experiments
# T2 construct: expressed in transfected cells; host or cells: HEK293, transient
# T2 sequence (Q15761 1-445): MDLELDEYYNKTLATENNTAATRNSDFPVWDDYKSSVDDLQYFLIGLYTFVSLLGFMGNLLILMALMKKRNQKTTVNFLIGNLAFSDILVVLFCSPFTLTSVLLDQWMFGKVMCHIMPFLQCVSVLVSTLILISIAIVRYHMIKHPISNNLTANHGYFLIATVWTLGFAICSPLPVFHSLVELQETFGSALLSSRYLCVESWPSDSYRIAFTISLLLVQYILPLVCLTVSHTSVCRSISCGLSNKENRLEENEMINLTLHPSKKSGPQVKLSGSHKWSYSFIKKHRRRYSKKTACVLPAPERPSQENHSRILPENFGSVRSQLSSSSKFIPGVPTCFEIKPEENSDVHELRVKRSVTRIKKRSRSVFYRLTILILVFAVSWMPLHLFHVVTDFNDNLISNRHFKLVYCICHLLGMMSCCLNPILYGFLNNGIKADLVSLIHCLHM
# Method: as §3, §2
# NPFF1R = biological target: T3, NPFF1R (Homo sapiens, UniProt Q9GZQ6); assay: IP accumulation assay, chimeric GαΔ6qi4myr, NPFF1R; format: cell-based; conditions: chimeric GαΔ6qi4myr co-transfected, transiently transfected HEK293 cells, mean of at least three independent experiments
# T3 construct: expressed in transfected cells; host or cells: HEK293, transient
# Method: as §3, §2
# QRFPR = biological target: T4, QRFPR (Homo sapiens, UniProt Q96P65); assay: IP accumulation assay, endogenous Gαq coupling, QRFPR; format: cell-based; conditions: transiently transfected HEK293 cells, mean of at least three independent experiments
# T4 construct: expressed in transfected cells; host or cells: HEK293, transient
# T4 sequence (Q96P65 1-431): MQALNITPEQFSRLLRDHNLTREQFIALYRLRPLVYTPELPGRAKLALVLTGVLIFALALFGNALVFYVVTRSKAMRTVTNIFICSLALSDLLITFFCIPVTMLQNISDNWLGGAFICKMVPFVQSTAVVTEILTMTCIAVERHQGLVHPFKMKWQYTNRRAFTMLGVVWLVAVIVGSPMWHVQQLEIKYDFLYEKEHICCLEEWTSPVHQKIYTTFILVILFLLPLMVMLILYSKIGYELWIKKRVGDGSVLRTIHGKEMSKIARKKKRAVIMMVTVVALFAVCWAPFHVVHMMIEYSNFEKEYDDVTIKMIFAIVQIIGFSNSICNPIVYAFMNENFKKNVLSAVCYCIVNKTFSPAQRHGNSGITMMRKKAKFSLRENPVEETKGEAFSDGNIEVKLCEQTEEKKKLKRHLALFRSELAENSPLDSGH
# Method: as §3, §2
# NPR-1 = biological target: T5, NPR-1 (Caenorhabditis elegans, UniProt Q18534); assay: cAMP reporter gene assay, Gi/o (inhibition of forskolin-induced cAMP), NPR-1; format: cell-based, C. elegans; set-up: host or cells: HEK293; conditions: inhibition of cAMP production induced by 1 µM forskolin (set to 1.00), lower = higher Gi/o activity, transiently transfected HEK293 cells, mean of at least three independent experiments
# T5 sequence (Q18534 1-457): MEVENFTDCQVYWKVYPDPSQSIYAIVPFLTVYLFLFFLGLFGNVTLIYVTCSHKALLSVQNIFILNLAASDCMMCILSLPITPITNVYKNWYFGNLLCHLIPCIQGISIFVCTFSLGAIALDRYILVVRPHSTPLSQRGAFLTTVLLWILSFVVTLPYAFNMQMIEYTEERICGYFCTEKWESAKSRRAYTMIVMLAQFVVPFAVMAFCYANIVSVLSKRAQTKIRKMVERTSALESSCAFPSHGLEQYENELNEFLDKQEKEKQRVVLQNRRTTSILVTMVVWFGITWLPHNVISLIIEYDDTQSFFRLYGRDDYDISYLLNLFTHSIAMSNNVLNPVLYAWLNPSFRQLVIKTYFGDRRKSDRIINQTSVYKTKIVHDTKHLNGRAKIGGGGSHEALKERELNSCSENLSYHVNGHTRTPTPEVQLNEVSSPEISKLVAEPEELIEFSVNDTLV
# Method: as §1, §2
# T1 sequence (P50391 whole entry): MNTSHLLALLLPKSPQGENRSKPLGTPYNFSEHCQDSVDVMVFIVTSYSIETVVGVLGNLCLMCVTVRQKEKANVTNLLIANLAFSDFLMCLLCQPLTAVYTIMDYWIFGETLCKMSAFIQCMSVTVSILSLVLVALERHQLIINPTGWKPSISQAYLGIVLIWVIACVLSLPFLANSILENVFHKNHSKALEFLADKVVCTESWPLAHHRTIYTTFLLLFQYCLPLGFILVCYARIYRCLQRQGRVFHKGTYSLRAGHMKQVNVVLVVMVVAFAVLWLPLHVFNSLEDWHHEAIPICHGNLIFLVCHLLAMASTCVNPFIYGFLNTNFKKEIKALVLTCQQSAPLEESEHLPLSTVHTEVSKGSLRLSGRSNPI
# T3 sequence (Q9GZQ6 whole entry): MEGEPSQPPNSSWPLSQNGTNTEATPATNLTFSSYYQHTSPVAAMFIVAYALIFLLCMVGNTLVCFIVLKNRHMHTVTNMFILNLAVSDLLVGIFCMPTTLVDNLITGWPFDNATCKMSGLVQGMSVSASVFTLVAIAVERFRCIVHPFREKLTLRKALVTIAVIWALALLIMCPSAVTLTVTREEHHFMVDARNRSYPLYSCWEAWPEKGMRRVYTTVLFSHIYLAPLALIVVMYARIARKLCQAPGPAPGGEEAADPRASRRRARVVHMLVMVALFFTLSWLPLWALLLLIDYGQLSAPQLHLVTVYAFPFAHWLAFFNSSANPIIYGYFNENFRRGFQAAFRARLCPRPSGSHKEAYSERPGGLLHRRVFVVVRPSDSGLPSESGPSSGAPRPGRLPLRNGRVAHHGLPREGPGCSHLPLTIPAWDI
Substance,"cAMP, x-fold of forskolin (mean), NPR-6 (NPR-6; 0.1 µM peptide)","cAMP, x-fold of forskolin (mean), NPR-6 (NPR-6; 10 µM peptide)","IP accumulation, x-fold of basal (mean), Y4R (Y4R; 0.1 µM peptide)","IP accumulation, x-fold of basal (mean), Y4R (Y4R; 10 µM peptide)","IP accumulation, x-fold of basal (mean), Y5R (Y5R; 0.1 µM peptide)","IP accumulation, x-fold of basal (mean), Y5R (Y5R; 10 µM peptide)","IP accumulation, x-fold of basal (mean), NPFF1R (NPFF1R; 0.1 µM peptide)","IP accumulation, x-fold of basal (mean), NPFF1R (NPFF1R; 10 µM peptide)","IP accumulation, x-fold of basal (mean), QRFPR# (QRFPR; 0.1 µM peptide)","IP accumulation, x-fold of basal (mean), QRFPR# (QRFPR; 10 µM peptide)","cAMP, x-fold of forskolin (mean), NPR-1 (NPR-1; 0.1 µM peptide)","cAMP, x-fold of forskolin (mean), NPR-1 (NPR-1; 10 µM peptide)"
PrRP31 [reference compound],0.96 x-fold of forskolin,1.25 x-fold of forskolin,0.84 x-fold of basal,1.10 x-fold of basal,0.70 x-fold of basal,9.64 x-fold of basal,0.87 x-fold of basal,2.26 x-fold of basal,0.58 x-fold of basal,0.59 x-fold of basal,1.30 x-fold of forskolin,1.41 x-fold of forskolin
"AGSDPNFLRF-NH2 [FLP-1-2, C. elegans FMRFamide-like peptide, C-terminally amidated, synthesized by SPPS]",0.94 x-fold of forskolin,0.29 x-fold of forskolin,1.28 x-fold of basal,1.45 x-fold of basal,1.33 x-fold of basal,1.17 x-fold of basal,2.11 x-fold of basal,3.54 x-fold of basal,1.07 x-fold of basal,0.92 x-fold of basal,0.98 x-fold of forskolin,0.89 x-fold of forskolin
"APLEPVYPGDNATPEQMAQYAADLRRYINMLTRPRY-NH2 [PP, human pancreatic polypeptide, reference compound]",1.01 x-fold of forskolin,1.00 x-fold of forskolin,4.73 x-fold of basal,4.61 x-fold of basal,16.39 x-fold of basal,17.90 x-fold of basal,0.75 x-fold of basal,0.75 x-fold of basal,0.75 x-fold of basal,0.75 x-fold of basal,1.21 x-fold of forskolin,1.49 x-fold of forskolin
"TSGPLGNLAEELNGYSRKKGGFSFRF-NH2 [QRFP26, human pyroglutamylated RFamide peptide, 26 residues, reference compound]",0.97 x-fold of forskolin,0.93 x-fold of forskolin,1.03 x-fold of basal,1.42 x-fold of basal,0.87 x-fold of basal,3.57 x-fold of basal,1.04 x-fold of basal,2.56 x-fold of basal,22.77 x-fold of basal,24.26 x-fold of basal,1.17 x-fold of forskolin,0.84 x-fold of forskolin
"ASPSFIRF-NH2 [FLP-4-2, C. elegans FMRFamide-like peptide, C-terminally amidated, synthesized by SPPS]",0.86 x-fold of forskolin,0.72 x-fold of forskolin,1.45 x-fold of basal,1.04 x-fold of basal,1.14 x-fold of basal,1.29 x-fold of basal,1.86 x-fold of basal,3.68 x-fold of basal,1.26 x-fold of basal,0.98 x-fold of basal,0.77 x-fold of forskolin,0.76 x-fold of forskolin
